Like-named read-outs stand apart in the source and are kept apart here.
B1: oncostatin M (protein, UniProt P13725 26-221, looked up)
Oncostatin-M: AAIGSCSKEYRVLLGQLQKQTDLMQDTSRLLDPYIRIQGLDVPKLREHCRERPGAFPSEETLRGLGRRGFLQTLNATLGCVLHRLADLEQRLPKAQDLERSGLNIEDLEKLQMARPNILGLRNNIYCMAQLLDNSDTAEPTKAGRGASQPPTPTPASDAFQRKLEGCRFLHGYHRFMHSVGRVFSKWGESPNRSRR

Tests used:
[1] = biological target: T1, recombinant full-length human kinase MNK1 (Homo sapiens, UniProt Q9BUB5); assay: MNK1 radiometric kinase activity assay; type: biochemical
T1 construct: the recombinant full-length human kinase MNK1; made in house; host or cells: insect cells
T1 sequence (Q9BUB5 whole entry): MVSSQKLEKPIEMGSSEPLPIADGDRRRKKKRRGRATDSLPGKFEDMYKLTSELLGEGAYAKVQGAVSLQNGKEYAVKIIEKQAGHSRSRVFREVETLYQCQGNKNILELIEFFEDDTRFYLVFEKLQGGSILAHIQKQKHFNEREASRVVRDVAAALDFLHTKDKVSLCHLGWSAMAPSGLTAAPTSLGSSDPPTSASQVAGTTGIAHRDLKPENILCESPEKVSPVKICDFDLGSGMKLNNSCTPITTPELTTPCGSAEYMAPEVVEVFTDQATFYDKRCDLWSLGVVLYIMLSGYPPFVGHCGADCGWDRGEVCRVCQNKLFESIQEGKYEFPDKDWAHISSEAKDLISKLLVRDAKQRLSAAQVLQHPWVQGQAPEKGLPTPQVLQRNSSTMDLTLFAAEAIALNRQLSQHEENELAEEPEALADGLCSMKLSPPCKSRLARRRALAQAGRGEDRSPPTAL

[2] = system: eIF4E phosphorylation at Serine 209 in HEK 293 cells; assay: eIF4E phosphorylation in HEK 293 cells (phospho-specific antibody, fluorescent plate reader); type: cell-based; settings: Homo sapiens, HEK293; eIF4E phosphorylation at Serine 209, 2 hours exposure; read-out: HEK 293 cell;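 also: Well-level p-eIF4E immunofluorescence normalized to DAPI signal, expressed as percent eIF4E phosphorylation, with IC50 derived from concentration-response curves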
P-gp (human MDR1, ABCB1) [3] = assay: MDCK-MDR1 permeability (blood-brain barrier permeability); settings: dog
[4] = system: IL-6 evoked grimace in ICR mice; assay: IL-6 evoked grimace test; type: in vivo; settings: PO 1 hr prior to IL-6 (4ET-03-053: 10 mg/kg)
Experimental: Male and female Institute for Cancer Research (ICR) mice were used in these experiments. Mice were bred in house at University of Texas at Dallas and used at between 12 and 24 weeks of age. Mice were habituated to plexiglass boxes of approximately 4×6 inches in size with openable tops. Habituation took place over 2 days with animals exposed to the boxes for at least 30 min. A blinded observer scored baseline grimacing using the method previously described by Mogil and colleagues (Langford D J, et al. “Coding of facial expressions of pain in the laboratory mouse” Nat Methods 7:447-449 (2010)). On test day, mice were given test compounds 1 hr prior to injection of interleukin 6 (human recombinant IL-6, R&D Systems) which was given at a dose of 0.1 ng in saline via an intraplantar injection as described previously (Moy J K, et al. “The MNK-eIF4E Signaling Axis Contributes to Injury-Induced Nociceptive Plasticity and the Development of Chronic Pain” J Neurosci. 37:7481-7499 (2017)). Test compounds were given orally (PO) via a flexible oral gavage canula built for mice. 4ET-03-053 is efficacious in the IL-6 evoked grimace test in mice (PO; 10 mg/kg).
Effect sizes were calculated per mouse by subtracting the baseline grimace score from the sum of the grimace scores for 1 and 3 hr time points.

[5] = biological target: T2, recombinant full length human kinase MNK2 (Homo sapiens, UniProt Q9HBH9); assay: MNK2 radiometric kinase activity assay; type: biochemical
T2 construct: the recombinant full length human kinase MNK2; made in house; host or cells: insect cells
T2 sequence (Q9HBH9 whole entry): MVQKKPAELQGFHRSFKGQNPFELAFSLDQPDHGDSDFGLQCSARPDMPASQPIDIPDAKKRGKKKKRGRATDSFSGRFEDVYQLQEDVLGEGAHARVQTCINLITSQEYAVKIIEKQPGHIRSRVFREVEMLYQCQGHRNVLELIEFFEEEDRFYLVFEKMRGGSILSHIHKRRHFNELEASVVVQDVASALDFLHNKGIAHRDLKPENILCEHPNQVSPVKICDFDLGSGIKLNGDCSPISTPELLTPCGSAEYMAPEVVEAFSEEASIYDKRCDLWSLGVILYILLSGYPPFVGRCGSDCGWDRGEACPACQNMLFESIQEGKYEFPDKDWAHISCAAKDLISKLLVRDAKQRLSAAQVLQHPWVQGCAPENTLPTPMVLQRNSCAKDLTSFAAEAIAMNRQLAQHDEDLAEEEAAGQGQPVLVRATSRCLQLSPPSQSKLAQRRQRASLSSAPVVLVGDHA

[6] = Liver microsome stability; settings: mouse, liver microsomes
in vitro = settings: mouse, microsomes
P-gp (human MDR1, ABCB1) [7] = assay: in vitro; settings: dog, MDCK-MDR1
Wistar rats = assay: Intravenous self-administration with oxycodone and saline regimen; type: in vivo; settings: Wistar rats; for Mean Difference, Šídák's multiple comparisons test: numbers of infusions
Experimental: Ten male and eleven female Wistar rats (Charles River, Hollister, CA) were used in this study. Rats were housed in groups of 2-3 per cage prior to surgery, and then individually housed to protect their catheters, in a temperature-controlled (22° C.) vivarium on a 12/12h light/dark cycle (lights off at 8:00 AM) with ad libitum access to food and water. The rats acclimated to the animal facility for at least 7 days before surgery. All procedures adhered to the National Institutes of Health Guide for the Care and Use of Laboratory Animals and were approved by the Institutional Animal Care and Use Committee of The Scripps Research Institute.
For surgery, rats were anesthetized with 2 to 3% isoflurane. They were implanted with a silastic catheter (0.3 mm i.d.×0.64 mm o.d.; Dow Corning Co. Midland, MI) into the right external jugular vein under aseptic conditions. The distal end of the catheter was subcutaneously threaded to the back of the rat where it exited via a metal guide cannula (22G; Plastics One Inc., Roanoke, VA) that was anchored at the back of the rat and closed with a small plastic cap and metal cover cap to keep the inside part of the catheter clean and protected (Caine S B, et al. “Effects of dopamine D-1 and D-2 antagonists on cocaine self-administration under different schedules of reinforcement in the rat” J Pharmacol Exp Ther. 270(1):209-18 (1994); Wee S, et al. “Effects of dose and session duration on cocaine self-administration in rats” J Pharmacol Exp Ther. 320(3):1134-43 (2007); Zorrilla E P, et al. “Extended access cocaine self-administration differentially activates dorsal raphe and amygdala corticotropin-releasing factor systems in rats” Addict Biol. 17(2):300-8 (2012); Valtcheva M V, et al. “Surgical extraction of human dorsal root ganglia from organ donors and preparation of primary sensory neuron cultures” Nat Protoc. 11:1877-1888 (2016)). All incisions were closed using veterinary tissue adhesive. After surgery, rats were given analgesic (Flunixin, 2.5 mg/kg s.c.).
Rats were allowed 5-7 days for recovery prior to self-administration.
The patency of catheters in the rats was tested using an ultra-short-acting barbiturate methohexital sodium (Brevital, Eli Lilly, Indianapolis, 1N, 10 mg/mL, 2 mg/rat) every 10-12 days during the study. Generally, a total loss of muscle tone within 3 s after a methohexital sodium injection indicates the patency of a catheter. Any animal that failed the test was excluded from the study.
During experimental sessions, each rat was placed in a standard operant chamber, which was placed in a light- and sound-attenuating cubicle (28×26×20 cm; Med Associates Inc., St. Albans, VT). The front door and the back wall of the chamber were made of transparent plastic, and the other walls were opaque metal. The chamber had two retractable response levers mounted on one side of the opaque walls. A stimulus light was mounted above each lever. A drug injection was delivered by a syringe pump (Razel Scientific Instruments, Georgia, VT) located on top of the cubicle. Experimental sessions were controlled and recorded by a PC computer with custom interface and software in the experimental room.
Experimental sessions were conducted once a day, 5-7 days a week during the dark (active) cycle. After being flushed with 0.9% saline, a rat's indwelling catheter was connected to a tube that exited the chamber through a metal spring and a swivel and was connected to a syringe pump. After the drug delivery system was connected to the rat, the chamber was closed, and the 2 hr session was started immediately. The start of a session was signaled by the presentation of two response levers into the chamber. […] During an injection, stimulus lights above both levers were illuminated and lasted throughout a time-out period (20 s) that followed each injection. Pressing the left lever was counted but had no other programmed consequences. […]

[8] = system: eIF4E phosphorylation in hDRGs; assay: p-eIF4E immunofluorescence in cultured human dorsal root ganglion cells (hDRGs); type: cell-based; settings: OSM 10 and 50 ng/ml, 30 min
Experimental: For all human DRG experiments, DRGs were recovered from organ donors at the Southwest Transplant Alliance under an IRB approved protocol at University of Texas at Dallas. DRGs were recovered within 3 hrs of cross clamp. DRGs were recovered and taken back to the University of Texas lab where they were cultured using the protocol described previously. Cultures were grown on glass coverslips for microscopy. Coverslips were coated with poly-D-lysine and laminin to improve neuronal adherence to the coverslips. Cultures of human DRG neurons were grown for 4-7 days prior to treatment with OSM. OSM treatment was done in culture media for a period of 30 min. Cells were stained with antibodies using the same protocol as described above for HEK293 cells. Imaging was done on an Olympus FV1200 microscope and image analysis was done with CellSens software. Statistical analysis was done with Graphpad Prism V8.
Human DRG recovery and other experimental protocols were the same as described herein.

[9] = radiometric activity assay, read-out: MNK1
[10] = radiometric activity assay, read-out: MNK2

Row | Molecule | IC50 [1, 9] [nM] | IC50 [2] [nM] | Papp A→B at 5 uM (P-gp (human MDR1, ABCB1) [3]) [×10⁻⁶ cm/s] | Papp B→A at 5 uM (P-gp (human MDR1, ABCB1) [3]) [×10⁻⁶ cm/s] | efflux ratio at 5 uM (P-gp (human MDR1, ABCB1) [3]) | IC50 [5, 10] [nM] | half-life [6] [min] | other results
1 | Cc1cc(Nc2cc(N)ncn2)c(=O)n2c1C(=O)NC21CCCC2(CC2)CC1 (racemic) [rac-4ET-01-027, 6″-((6-Aminopyrimidin-4-yl)amino)-8″-methyl-2″H-dispiro[cyclopropane-1,1′-cycloheptane-4′,3″-imidazo[1,5-a]pyridine]-1″,5″-dione] | 35.2 | 12.6 | 52.9 | 62.1 | 1.2 | 1.6 | 66.4 | efficacy in the IL-6 evoked grimace test [4]: efficacious
2 | Cc1cc(Nc2cc(N)ncn2)c(=O)n2c1C(=O)NC21C=CC2(CC2)CC1 (stereo not shown) [4ET-01-051, 6″-((6-Aminopyrimidin-4-yl)amino)-8″-methyl-2″H-dispiro[cyclopropane-1,1′-cyclohexane-4′,3″-imidazo[1,5-a]pyridin]-2′-ene-1″,5″-dione] | 58.6 | 7.3 | 22.7 | 52.4 | 2.3 | 3.1 | 835 | efficacy in the IL-6 evoked grimace test [4]: efficacious
3 | Cc1cc(Nc2cc(NC(=O)C3CC3)ncn2)c(=O)n2c1C(=O)NC21CCC2(CC1)CN2 (stereo not shown) [4ET-03-040, N-(6-((8″-methyl-1″,5″-dioxo-1″,5″-dihydro-2″H-dispiro[aziridine-2,1′-cyclohexane-4′,3″-imidazo[1,5-a]pyridin]-6″-yl)amino)pyrimidin-4-yl)cyclopropanecarboxamide] | – | 27.4 | – | – | 2.4 | – | – | IC50 [1]: 38.6 nM; half-life (in vitro): 77 min; IC50 [5]: 2 nM; Papp A→B at 5 uM (P-gp (human MDR1, ABCB1) [7]): 0.6 ×10⁻⁶ cm/s; Papp B→A at 5 uM (P-gp (human MDR1, ABCB1) [7]): 1.6 ×10⁻⁶ cm/s
4 | Cc1cc(Nc2cc(NC(=O)C3CC4(CNC4)C3)ncn2)c(=O)n2c1C(=O)NC21CCC2(CC2)CC1 [4ET-03-057, N-(6-((8″-methyl-1″,5″-dioxo-1″,5″-dihydro-2″H-dispiro[cyclopropane-1,1′-cyclohexane-4′,3″-imidazo[1,5-a]pyridin]-638-yl)amino)pyrimidin-4-yl)-2-azaspiro[3.3]heptane-6-carboxamide] | 61.6 | 8.7 | – | – | – | 3.4 | 219 | Papp A→B (P-gp (human MDR1, ABCB1) [7]): 0.3 ×10⁻⁶ cm/s; Papp B→A (P-gp (human MDR1, ABCB1) [7]): 1.1 ×10⁻⁶ cm/s
5 | Cc1cc(Nc2cc(NCCO)ncn2)c(=O)n2c1C(=O)NC21CCC2(CC2)CC1 [4ET-03-074, 6″-((6-((2-hydroxyethyl)amino)pyrimidin-4-yl)amino)-8″-methyl-2″H-dispiro[cyclopropane-1,1′-cyclohexane-4′,3″-imidazo[1,5-a]pyridine]-1″,5″-dione] | 45.9 | 11.3 | 7.6 | 58.1 | 7.6 | 3.1 | 112 | –
6 | COc1ccc2c3c1O[C@H]1C(=O)CC[C@@]4(O)[C@@H](C2)N(C)CC[C@]314 [oxycodone, oxycondone, reference compound] | – | – | – | – | – | – | – | numbers of infusions, multiple comparisons test: oxycodone and subsequent saline (Wistar rats; 0.15 mg/kg oxycodone, both times this occurred): significant differences; Mean Difference, Šídák's multiple comparisons test (Wistar rats; 0.15 mg/kg oxycodone vs. saline (3rd comparison, first occurrence)): 6.547; Mean Difference, Šídák's multiple comparisons test (Wistar rats; 0.15 mg/kg oxycodone vs. saline (6th comparison, second occurrence)): 9.006
7 | B1 | – | – | – | – | – | – | – | phosphorylation of eIF4E in hDRGs (stimulus) [8]: increased phosphorylation of eIF4E
